Test results as given in US20090018163A1, “Substituted Heterocyclic Ethers and Their Use in CNS Disorders” (Bristol-Myers Squibb Company, priority 2007, published 2009).
pIC50: −log10 of the molar value. Read-outs that look alike come from different tables or passages of the source.

Columns and labels:
hSERT = target: T1, hSERT (Homo sapiens, UniProt P31645); assay: SERT radioligand binding assay
T1 construct: expressed in transfected cells; host or cells: HEK-293 cells (crude membrane preparation)
T1 sequence (P31645 whole entry): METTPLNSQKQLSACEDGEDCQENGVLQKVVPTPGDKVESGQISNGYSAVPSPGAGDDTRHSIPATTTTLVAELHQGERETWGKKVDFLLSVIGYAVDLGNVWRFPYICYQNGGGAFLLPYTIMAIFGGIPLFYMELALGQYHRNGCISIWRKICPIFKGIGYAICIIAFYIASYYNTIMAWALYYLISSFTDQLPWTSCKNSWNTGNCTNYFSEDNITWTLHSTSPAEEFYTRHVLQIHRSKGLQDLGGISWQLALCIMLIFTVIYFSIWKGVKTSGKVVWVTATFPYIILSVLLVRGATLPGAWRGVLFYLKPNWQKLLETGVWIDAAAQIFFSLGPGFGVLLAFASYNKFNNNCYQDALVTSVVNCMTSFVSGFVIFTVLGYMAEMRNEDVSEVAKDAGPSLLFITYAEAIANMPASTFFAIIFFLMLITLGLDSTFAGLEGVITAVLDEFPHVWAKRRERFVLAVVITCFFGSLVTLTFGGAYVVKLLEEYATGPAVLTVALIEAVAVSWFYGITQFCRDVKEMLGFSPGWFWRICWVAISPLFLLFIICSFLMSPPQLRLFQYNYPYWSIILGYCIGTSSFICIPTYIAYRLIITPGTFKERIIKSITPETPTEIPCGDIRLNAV
Method: (§1) NK-1 Binding assay. Crude membrane suspensions were prepared for the NK1 and SERT radioligand binding assays from U373 cells or recombinant HEK-293 cells expressing hSERT, respectively. Cells were harvested from T-175 flasks as follows. The medium is removed from the flasks and the cells rinsed with HBSS without Ca and without Mg. The cells are then incubated for 5-10 minutes in 10 mM Tris-Cl, pH 7.5, 5 mM EDTA before the cells are lifted with a combination of pipetting and scraping, as needed. To prepare membranes, the cell suspension is collected into centrifuge bottles and homogenized for 30 seconds with a Polytron homogenizer. The suspension is centrifuged for 30 min @ 32,000×g, 4° C., then the supernatant is decanted and the pellet resuspended and homogenized in 50 mM Tris-Cl, pH 7.5, 1 mM EDTA for 10 seconds. The suspension is then centrifuged again for 30 min @ 32,000×g, 4° C. The supernatant is decanted and the pellet resuspended in 50 mM Tris-Cl, pH 7.5, 1 mM EDTA and briefly homogenized. A Bradford assay (Bio-rad) is performed and the membrane preparation diluted to 2 mg/ml with 50 mM Tris-Cl, pH 7.5, 1 mM EDTA. Aliquots are prepared, and then frozen and stored at −80° C.
SERT radioligand binding assay. Compounds are dissolved in 100% DMSO at a concentration 100× the desired highest assay concentration, serially diluted 1:3 in 100% DMSO, and 0.4 ul/well of each solution is dispensed to a Nunc polypropylene, round bottom, 384 well plate. 100% inhibition is defined with 0.4 ul/well of 1 mM fluoxetine (Sigma F-132) dissolved in DMSO. 20 ul/well of a 2×HEK-hSERT membrane preparation (15 ug/ml in 50 mM Tris-Cl, pH 7.5, 120 mM NaCl, 5 mM KCl) and 20 ul/well of a 2× radioligand solution (520 pM [^125I]RTI-55 (Perkin-Elmer NEX-272) in 50 mM Tris-Cl, pH 7.5, 120 mM NaCl, 5 mM KCl) are added to each well and the reaction incubated for 1 hour at room temperature. The contents of the assay plate are then transferred to a Millipore MultiscreenHTS GF/B filter plate which has been pretreated with 0.5% PEI for at least one hour. The plate is vacuum filtered and washed with 7 washes of 100 ul/well of 50 mM Tris-Cl, pH 7.5, 120 mM NaCl, 5 mM KCl chilled to 4° C. The filtration and washing is completed in less than 90 s. The plates are air-dried overnight, 12 ul/well of MicroScint scintillation fluid added, and the plates counted in a Trilux.
(§2) Data analysis. The raw data are normalized to percent inhibition using control wells defining 0% (DMSO only) and 100% (selective inhibitor) inhibition which are run on each plate. Each plate is run in triplicate, and the concentration response curve thus generated is fit using the four-parameter dose response equation, Y=Bottom+(Top-Bottom)/(1+10̂((LogIC50−X)*HillSlope)) in order to determine the IC50 value for each compound. The radioligand concentration chosen for each assay corresponds to the Kd concentration determined through saturation binding analysis for each assay.

NK-1 = target: T2, NK-1 (Homo sapiens, UniProt P25103); assay: NK1 radioligand binding assay; conditions: U373 membrane preparation, [125I]Substance P
T2 construct: 30 ul/well of a 2×U373 membrane preparation; endogenous in cells; host or cells: U373 cells (crude membrane preparation)
T2 sequence (P25103 whole entry): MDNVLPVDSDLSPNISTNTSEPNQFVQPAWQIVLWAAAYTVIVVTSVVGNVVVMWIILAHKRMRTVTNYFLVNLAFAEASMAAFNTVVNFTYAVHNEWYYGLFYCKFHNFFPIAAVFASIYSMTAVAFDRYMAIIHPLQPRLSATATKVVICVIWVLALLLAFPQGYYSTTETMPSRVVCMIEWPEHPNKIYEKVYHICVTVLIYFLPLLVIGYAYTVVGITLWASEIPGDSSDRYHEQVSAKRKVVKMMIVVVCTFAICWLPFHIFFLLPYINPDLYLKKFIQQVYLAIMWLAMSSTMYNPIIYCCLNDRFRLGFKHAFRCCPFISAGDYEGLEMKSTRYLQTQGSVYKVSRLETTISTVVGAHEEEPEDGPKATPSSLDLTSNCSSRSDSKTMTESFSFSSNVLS
Method: as §1
NK1 radioligand binding assay. Compounds are dissolved in 100% DMSO at a concentration 100× the desired highest assay concentration, serially diluted 1:3 in 100% DMSO, and 0.6 ul/well of each solution is dispensed to a Nunc polypropylene, round bottom, 384 well plate. 100% inhibition is defined with 0.6 ul/well of 1 mM L-733,060 (Sigma L-137) dissolved in DMSO. 30 ul/well of a 2×U373 membrane preparation (267 ug/ml in 100 mM Tris-Cl, pH 7.5, 6 mM MgCl2, 0.2% (v/v) Sigma mammalian protease inhibitor cocktail (Sigma P-8340), and 4 ug/ml chymostatin, Sigma C-7268) and 30 ul/well of a 2× radioligand solution (400 pM [^125I]Substance P (Perkin Elmer NEX-190) in 1% (w/v) BSA (Sigma A-2153), 0.1 mg/ml bacitracin, Sigma B-0125) are added to the well and the reaction incubated for 1 hour at room temperature. The contents of the assay plate are then transferred to a Millipore MultiscreenHTS GF/B filter plate which has been pretreated with 0.5% PEI for at least one hour. The plate is vacuum filtered and washed with 7 washes of 100 ul/well of 20 mM Tris-Cl, pH 7.5, 0.5% (w/v) BSA chilled to 4° C. The filtration and washing is completed in less than 90 s. The plates are air-dried overnight, 12 ul/well of MicroScint scintillation fluid added, and the plates counted in a Trilux.
as §2

[1] = HEK-hSERT membrane preparation, [125I]RTI-55, Table 1, read-out: SERT IC50
[2] = HEK-hSERT membrane preparation, [125I]RTI-55, Table 1a, single enantiomers, read-out: SERT IC50

For Cc1ccc2c(C)cc(COCC3(c4ccccc4)CCNCC3)nc2c1 [Example 20], the pIC50 (hSERT; [1]) was 7.00 to 11.00 and the pIC50 (NK-1; Table 1) was less than 6.52.
Work on Cc1cc(C(C)OCC2(c3ccc(F)cc3)CCN(C)CC2)c2ncccc2c1 (single isomer, unassigned) [Example 75] yielded a pIC50 (hSERT) of 7.00 to 11.00 and a pIC50 (NK-1; Table 1a, single enantiomers) of less than 6.52.
For FC(F)(F)c1cccc2nc(COCC3(c4ccccc4)CCNCC3)ccc12 [Example 48, 2-(((4-phenylpiperidin-4-yl)methoxy)methyl)-5-(trifluoromethyl)quinoline], the pIC50 (hSERT; [1]) was 7.00 to 11.00 and the pIC50 (NK-1; Table 1) was less than 6.52.
With FC(F)(F)c1ccc2c(Cl)cc(COCC3(c4ccccc4)CCNCC3)nc2c1 [Example 17, 4-chloro-2-(((4-phenylpiperidin-4-yl)methoxy)methyl)-7-(trifluoromethyl)quinoline] the pIC50 (hSERT; [1]) was 7.00 to 11.00 and the pIC50 (NK-1; Table 1) was less than 6.52.
Work on Cc1cc(C(C)OCC2(c3ccc(F)cc3)CCN(C)CC2)c2nc(Cl)ccc2c1 (stereo not shown) [Example 49] yielded a pIC50 (hSERT; [1]) of 7.00 to 11.00 and a pIC50 (NK-1; Table 1) of 7.00 to 11.00.
Brc1cc(COCC2(c3ccccc3)CCNCC2)c2ncccc2c1 [Example 22] showed a pIC50 (hSERT; [1]) of 7.00 to 11.00 and a pIC50 (NK-1; Table 1) of 7.00 to 11.00.
CN1CCC(COCc2cc(N)c3ccccc3n2)(c2ccccc2)CC1 [Example 8] was tested, and the pIC50 (hSERT) was 7.00 to 11.00 and the pIC50 (NK-1; Table 1) was less than 6.52.
For CC(OCC1(c2ccccc2)CCN(C)CC1)c1cc(C(F)(F)F)cc2cccnc12 (single isomer, unassigned) [Example 73], the pIC50 (hSERT; [2]) was 7.00 to 11.00 and the pIC50 (NK-1; Table 1a, single enantiomers) was 7.00 to 11.00.
With Cc1cc(C(C)OCC2(c3ccc(F)cc3)CCN(C)CC2)c2nc(F)ccc2c1 (stereo not shown) [Example 52] the pIC50 (hSERT; [1]) was 7.00 to 11.00 and the pIC50 (NK-1; Table 1) was 7.00 to 11.00.
CNc1cc(COCC2(c3ccccc3)CCNCC2)nc2cccc(C(F)(F)F)c12 [Example 45, N-methyl-2-(((4-phenylpiperidin-4-yl)methoxy)methyl)-5-(trifluoromethyl)quinolin-4-amine] was tested, and the pIC50 (hSERT; [1]) was 7.00 to 11.00 and the pIC50 (NK-1; Table 1) was less than 6.52.
In the case of CN1CCC(COCc2cc(-c3ccc(C#N)cc3)cc3cccnc23)(c2ccccc2)CC1 [Example 25], the pIC50 (hSERT) was 7.00 to 11.00 and the pIC50 (NK-1; Table 1) was less than 6.52.
For Cc1ccc2cc(COCC3(c4ccccc4)CCNCC3)ccc2n1 [Example 9], the pIC50 (hSERT; [1]) was 7.00 to 11.00 and the pIC50 (NK-1; Table 1) was less than 6.52.
CC(OCC1(c2ccccc2)CCN(C)CC1)c1cc(C(F)(F)F)cc2cccnc12 (stereo not shown) [Example 36] gave a pIC50 (hSERT; [1]) of 7.00 to 11.00 and a pIC50 (NK-1; Table 1) of 7.00 to 11.00.
Cc1cc(COCC2(c3ccc(F)cc3)CCN(C)CC2)c2ncccc2c1 [Example 30] was tested, and the pIC50 (hSERT; [1]) was 7.00 to 11.00 and the pIC50 (NK-1; Table 1) was 7.00 to 11.00.
Cc1cc(C(C)OCC2(c3ccc(F)cc3)CCN(C)CC2)c2[nH]c(=O)ccc2c1 (stereo not shown) [Example 53] showed a pIC50 (hSERT; [1]) of 7.00 to 11.00 and a pIC50 (NK-1; Table 1) of 7.00 to 11.00.
Work on CN1CCC(COCc2ccc3ccccc3n2)(c2ccccc2)CC1 [Example 6] yielded a pIC50 (hSERT; [1]) of 7.00 to 11.00 and a pIC50 (NK-1; Table 1) of less than 6.52.
With CN1CCC(COCc2cc(C(F)(F)F)cc3cccnc23)(c2ccc(F)cc2)CC1 [Example 32, 8-(((4-(4-fluorophenyl)-1-methylpiperidin-4-yl)methoxy)methyl)-6-(trifluoromethyl)quinoline] the pIC50 (hSERT; [1]) was 7.00 to 11.00 and the pIC50 (NK-1; Table 1) was 7.00 to 11.00.
In the case of CC(OCC1(c2ccc(F)cc2)CCN(C)CC1)c1cc(Br)cc2cccnc12 (single isomer, unassigned) [Example 79], the pIC50 (hSERT; [2]) was 7.00 to 11.00 and the pIC50 (NK-1; Table 1a, single enantiomers) was 7.00 to 11.00.
c1ccc(C2(COCc3ccc4ccccc4n3)CCNCC2)cc1 [Example 5] gave a pIC50 (hSERT; [1]) of 7.00 to 11.00 and a pIC50 (NK-1; Table 1) of less than 6.52.
With Cc1cc(COCC2(c3ccccc3)CCN(C)CC2)c2ccccc2n1 [Example 2, 2-methyl-4-(((1-methyl-4-phenylpiperidin-4-yl)methoxy)methyl)quinoline] the pIC50 (hSERT) was 7.00 to 11.00 and the pIC50 (NK-1; Table 1) was less than 6.52.
Compound Cc1cc(COCC2(c3ccc(F)cc3)CCNCC2)c2ncccc2c1 [Example 29] has a pIC50 (hSERT; [1]) of 7.00 to 11.00 and a pIC50 (NK-1; Table 1) of 7.00 to 11.00.
With CC(OCC1(c2ccc(F)cc2)CCN(C)CC1)c1cc(C(F)(F)F)cc2cccnc12 (stereo not shown) [Example 34] the pIC50 (hSERT; [1]) was 7.00 to 11.00 and the pIC50 (NK-1; Table 1) was 7.00 to 11.00.
In the case of CN(C)c1cc(COCC2(c3ccccc3)CCNCC2)nc2ccccc12 [Example 16, N,N-dimethyl-2-(((4-phenylpiperidin-4-yl)methoxy)methyl)quinolin-4-amine], the pIC50 (hSERT; [1]) was 7.00 to 11.00 and the pIC50 (NK-1; Table 1) was less than 6.52.
